Holding throughout (assay): NCI tumour cell line growth inhibition, 48 h
Test [1] relates to OVCAR-3.
Test [2] deals with UACC-62.
Test [3] deals with RPMI-8226.
Test [4] deals with M14.
Test [5] relates to SK-MEL-28.
The subject of test [6] is HCT-15.
For test [7], the system named is KM-20L2.
The subject of test [8] is UO-31.
In test [9] the test system is MCF7.
Test [10] relates to A498.
Test [11] deals with TK-10.
Test [12] deals with SF-268.
Test [13] has as its system SR.
In test [14] the test system is IGROV-1.
The test system of test [15] is A549.
Test [16] relates to HL-60.
Test [17] concerns SF-539.
In test [18] the test system is UACC-257.
Test [19] deals with SNB-75.
In test [20] the test system is Hs-578T.

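How tested: cells in 96-well plates exposed to compound for 48 hours at five concentrations. GI50 = concentration required for 50% inhibition of growth.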 Active and inactive are the calls of the source. Rule as the data show it: active = GI50 up to about 1.1 µM and inactive = higher.

With `CN(C)CCN1C(=O)c2cccc3cc([N+](=O)[O-])cc(c23)C1=O` [MITONAFIDE], the GI50 was 1.37 µM (inactive) in [1]; 0.247 µM (active) in test [2]; 0.443 µM (active) in test [3]; 0.479 µM (active) in test [4]; 1.34 µM (inactive) in [5]; 290 nM in test [6]. Also, the GI50 in [7] was 0.405 µM (active); in test [8], 0.248 µM (active); in test [9], 0.165 µM (active); in test [10], 0.167 µM (active); in test [11], 2.13 µM (inactive); in test [12], 0.324 µM (active). For the same compound, the GI50 is 0.129 µM (active) in [13]; 0.5 µM (active) in [14]; 0.0716 µM (active) in test [15]; 0.0676 µM (active) in test [16]; 0.155 µM (active) in [17]; 0.838 µM (active) in test [18]. In addition, the GI50 in [19] is 0.194 µM (active); in [20] it was 1.04 µM (active).
As to `NC(CSC(c1ccccc1)(c1ccccc1)c1ccccc1)C(=O)O` (stereo unspecified), the GI50 in test [1] is 1.7 µM (inactive); in test [2], 0.685 µM (active); in test [3], 0.569 µM (active); in [4], 0.538 µM (active); in [5], 10 µM (inactive); in [6], 925 nM. Besides, the GI50 is 1.82 µM (inactive) in test [7]; 18.5 µM (inactive) in test [8]; 1.51 µM (inactive) in test [10]; 19.9 µM (inactive) in test [11]; 1.27 µM (inactive) in test [12]; 2.12 µM (inactive) in test [14]. Further, the GI50 was 0.822 µM (active) in test [15]; 0.433 µM (active) in test [16]; 0.396 µM (active) in test [17]; 1.84 µM (inactive) in [18]; 1.74 µM (inactive) in test [19]; 1.61 µM (inactive) in test [20].
Regarding `Cc1ccc(NC(=O)C(=O)C(C(=O)/C=C/c2ccccc2)C2OC(=O)c3ccccc32)c(C)c1` (stereo unspecified), the GI50 in test [1] is > 100 µM (inactive); in [2], > 100 µM (inactive); in test [3], 60.4 µM (inactive); in [4], > 100 µM (inactive); in [5], > 100 µM (inactive); in test [6] it was over 100000 nM. The GI50 in [7] is > 100 µM (inactive); in test [8] it was > 100 µM (inactive); in [10], > 100 µM (inactive); in test [11], > 100 µM (inactive); in test [12], > 100 µM (inactive); in test [13], 45.4 µM (inactive). Besides, the GI50 in test [14], in test [15], in [16], in [17], in test [18] and in test [19] was > 100 µM (inactive) in each case.
With `COc1ccc(NC(=O)CC(=O)n2nc(-c3ccccc3)c(/N=N/c3ccc(C)cc3)c2-c2ccccc2)cc1`, the GI50 is 43 µM (inactive) in test [1]; 27.9 µM (inactive) in [2]; 55.7 µM (inactive) in test [3]; 52.6 µM (inactive) in test [4]; > 91.6 µM (inactive) in [5]; over 100000 nM in [6]. Moreover, the GI50 is > 78.2 µM (inactive) in test [7]; 29.3 µM (inactive) in test [8]; > 52.1 µM (inactive) in test [9]; > 49.3 µM (inactive) in test [10]; 36.2 µM (inactive) in test [11]; 21.6 µM (inactive) in test [12]. Moreover, the GI50 was 47.2 µM (inactive) in test [13]; 16.9 µM (inactive) in [14]; 44 µM (inactive) in test [15]; > 100 µM (inactive) in [16]; 25.4 µM (inactive) in [17]; 57.8 µM (inactive) in test [18]. For the same compound, the GI50 in test [19] is 16.4 µM (inactive); in test [20] it was 16.6 µM (inactive).

The values are drawn from ChEMBL document CHEMBL1201862, “PubChem BioAssay data set” (2004).
